Test results reported in PMC5884870, “Antioxidant Role of PcGSTd1 in Fenpropathrin Resistant Population of the Citrus Red Mite, Panonychus citri (McGregor)” (Frontiers in Physiology, 2018).

Tests used:
PcGSTd1 [1] = molecular target: T1, PcGSTd1 (Panonychus citri, UniProt H9BTE1); assay: CDNB-GSH conjugation, absorbance […] nm, Lineweaver-Burk; format: biochemical; conditions: co-substrate GSH; 28 C
T1 construct: full ORF in pET-28a (BamHI/NotI), His-tag kept (Ni-NTA), E. coli TransBL21(DE3); EC 2.5.1.18
T1 sequence (H9BTE1 1-217): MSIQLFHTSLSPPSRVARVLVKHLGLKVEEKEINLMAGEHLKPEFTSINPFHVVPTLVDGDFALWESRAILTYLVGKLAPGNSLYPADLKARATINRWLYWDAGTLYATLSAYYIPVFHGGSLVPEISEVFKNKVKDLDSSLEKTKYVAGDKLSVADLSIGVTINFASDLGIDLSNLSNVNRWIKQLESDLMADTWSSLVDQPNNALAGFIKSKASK

PcGSTd1 [2] = molecular target: T1, PcGSTd1; assay: CDNB-GSH conjugation, absorbance […] nm; format: biochemical; conditions: 0.6 mM CDNB, 5 mM GSH, 0.05 M Tris-HCl pH 7.5; ECA 0.05-2 mM

Row | Structure (SMILES) | Km (PcGSTd1 [1]) [µM] | IC50 (PcGSTd1 [2]) [µM]
1 | O=[N+]([O-])c1ccc(Cl)c([N+](=O)[O-])c1 [1-chloro-2,4-dinitrobenzene] | 1820 ± 490 | 
2 | C=C(CC)C(=O)c1ccc(OCC(=O)O)c(Cl)c1Cl [ethacrynic acid] |  | 1130 ± 120
